# Measurements: PubChem BioAssay AID1963962 (Molecular Pharmacology Branch, DTP, NCI, 2024)
# Test system: 967376-340-R-J2-PDC multicell spheroid viability
# Experiment: Anticancer human tumor 967376-340-R-J2-PDC patient-derived colon adenocarcinoma cell line growth inhibition [PI3K]
# Settings: for IC50: curve of first compound; for viability, T/C: stronger effect = lower value
# How it was run: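 Multi-cell spheroids combine tumor cells with HUVEC and human MSCs, treated with targeted agents alone or with inavolisib, alpelisib, duvelisib or copanlisib. Concentrations fall in half-log steps from at or near clinical Cmax, or from 10 microM where Cmax is unknown; viability read-out.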
# [1] = second compound 0.00316 µM, first compound 0.0316 µM
# [2] = second compound 0.00316 µM, first compound 0.1 µM
# [3] = second compound 0.00316 µM, first compound 0.316 µM
# [4] = second compound 0.00316 µM, first compound 1 µM
# [5] = second compound 0.00316 µM, first compound 3.16 µM
# [6] = second compound 0.00316 µM, first compound 10 µM
# [7] = second compound 0.01 µM, first compound 0.0316 µM
# [8] = second compound 0.01 µM, first compound 0.1 µM
# [9] = second compound 0.01 µM, first compound 0.316 µM
# [10] = second compound 0.01 µM, first compound 1 µM
# [11] = second compound 0.01 µM, first compound 3.16 µM
# [12] = second compound 0.01 µM, first compound 10 µM
# [13] = second compound 0.0316 µM, first compound 0.0316 µM
# [14] = second compound 0.0316 µM, first compound 0.1 µM
# [15] = second compound 0.0316 µM, first compound 0.316 µM
# [16] = second compound 0.0316 µM, first compound 1 µM
# [17] = second compound 0.0316 µM, first compound 3.16 µM
# [18] = second compound 0.0316 µM, first compound 10 µM
# [19] = second compound 0.1 µM, first compound 0.0316 µM
# [20] = second compound 0.1 µM, first compound 0.1 µM
# [21] = second compound 0.1 µM, first compound 0.316 µM
# [22] = second compound 0.1 µM, first compound 1 µM
# [23] = second compound 0.1 µM, first compound 3.16 µM
# [24] = second compound 0.1 µM, first compound 10 µM
# [25] = second compound 0.316 µM, first compound 0.0316 µM
# [26] = second compound 0.316 µM, first compound 0.1 µM
# [27] = second compound 0.316 µM, first compound 0.316 µM
# [28] = second compound 0.316 µM, first compound 1 µM
# [29] = second compound 0.316 µM, first compound 3.16 µM
# [30] = second compound 0.316 µM, first compound 10 µM
# [31] = second compound 1 µM, first compound 0.0316 µM
# [32] = second compound 1 µM, first compound 0.1 µM
# [33] = second compound 1 µM, first compound 0.316 µM
# [34] = second compound 1 µM, first compound 1 µM
# [35] = second compound 1 µM, first compound 3.16 µM
# [36] = second compound 1 µM, first compound 10 µM
# 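Also: spheroids exposed to agents for 7 days before read-out.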
# 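For viability, T/C in this document: luminescence used as surrogate of cell viability.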
compound,measurement,setting,value
C#Cc1c(F)ccc2cc(O)cc(-c3ncc4c(N5CC6CCC(C5)N6)nc(OCC56CCCN5CC(F)C6)nc4c3F)c12 (stereo not drawn) + COc1c(OCCCN2CCOCC2)ccc2c3n(c(=NC(=O)c4cnc(N)nc4)nc12)CCN3,IC50,second compound 0.00316 µM,> 10 µM
same,IC50,second compound 0.01 µM,> 10 µM
same,IC50,second compound 0.0316 µM,> 10 µM
same,IC50,second compound 0.1 µM,1.21 µM
same,IC50,second compound 0.316 µM,3.64 µM
same,IC50,second compound 1 µM,< 0.0316 µM
same,"viability, T/C",[1],89%
same,"viability, T/C",[2],99.1%
same,"viability, T/C",[3],101%
same,"viability, T/C",[4],109%
same,"viability, T/C",[5],91.8%
same,"viability, T/C",[6],84.7%
same,"viability, T/C",[7],94.2%
same,"viability, T/C",[8],102%
same,"viability, T/C",[9],79.2%
same,"viability, T/C",[10],91.6%
same,"viability, T/C",[11],77.9%
same,"viability, T/C",[12],62.9%
same,"viability, T/C",[13],83%
same,"viability, T/C",[14],82.5%
same,"viability, T/C",[15],81.5%
same,"viability, T/C",[16],77.1%
same,"viability, T/C",[17],81.8%
same,"viability, T/C",[18],57.3%
same,"viability, T/C",[19],68.4%
same,"viability, T/C",[20],61.8%
same,"viability, T/C",[21],58.1%
same,"viability, T/C",[22],48.8%
same,"viability, T/C",[23],47.1%
same,"viability, T/C",[24],49%
same,"viability, T/C",[25],56.1%
same,"viability, T/C",[26],48.2%
same,"viability, T/C",[27],53.7%
same,"viability, T/C",[28],42.3%
same,"viability, T/C",[29],63.6%
same,"viability, T/C",[30],29.8%
same,"viability, T/C",[31],42.9%
same,"viability, T/C",[32],40.9%
same,"viability, T/C",[33],44.2%
same,"viability, T/C",[34],40%
same,"viability, T/C",[35],40.7%
same,"viability, T/C",[36],18.6%
C=CC(=O)N1CCN(c2nc(=O)n(-c3c(C)ccnc3C(C)C)c3nc(-c4c(O)cccc4F)c(F)cc23)C(C)C1 (stereo not drawn) + COc1c(OCCCN2CCOCC2)ccc2c3n(c(=NC(=O)c4cnc(N)nc4)nc12)CCN3,IC50,second compound 0.00316 µM,> 10 µM
same,IC50,second compound 0.01 µM,> 10 µM
same,IC50,second compound 0.0316 µM,> 10 µM
same,IC50,second compound 0.1 µM,> 10 µM
same,IC50,second compound 0.316 µM,< 0.0316 µM
same,IC50,second compound 1 µM,< 0.0316 µM
same,"viability, T/C",[1],112%
same,"viability, T/C",[2],101%
same,"viability, T/C",[3],91.7%
same,"viability, T/C",[4],92.6%
same,"viability, T/C",[5],111%
same,"viability, T/C",[6],70.2%
same,"viability, T/C",[7],95.5%
same,"viability, T/C",[8],97.8%
same,"viability, T/C",[9],90.8%
same,"viability, T/C",[10],80.4%
same,"viability, T/C",[11],84.8%
same,"viability, T/C",[12],73.5%
same,"viability, T/C",[13],74%
same,"viability, T/C",[14],81.7%
same,"viability, T/C",[15],73.1%
same,"viability, T/C",[16],70.3%
same,"viability, T/C",[17],85.6%
same,"viability, T/C",[18],79.8%
same,"viability, T/C",[19],55.3%
same,"viability, T/C",[20],78.6%
same,"viability, T/C",[21],63.9%
same,"viability, T/C",[22],66%
same,"viability, T/C",[23],84%
same,"viability, T/C",[24],52%
same,"viability, T/C",[25],50.5%
same,"viability, T/C",[26],41%
same,"viability, T/C",[27],41.3%
same,"viability, T/C",[28],40.3%
same,"viability, T/C",[29],50.1%
same,"viability, T/C",[30],42.6%
same,"viability, T/C",[31],33.6%
same,"viability, T/C",[32],36%
same,"viability, T/C",[33],29.6%
same,"viability, T/C",[34],34.5%
same,"viability, T/C",[35],37.9%
same,"viability, T/C",[36],39.5%
CC(Cn1ccc(-c2ccc(C#N)c(Cl)c2)n1)NC(=O)c1cc(C(C)O)[nH]n1 (stereo not drawn) + COc1c(OCCCN2CCOCC2)ccc2c3n(c(=NC(=O)c4cnc(N)nc4)nc12)CCN3,IC50,second compound 0.00316 µM,> 10 µM
same,IC50,second compound 0.01 µM,> 10 µM
same,IC50,second compound 0.0316 µM,> 10 µM
same,IC50,second compound 0.1 µM,> 10 µM
same,IC50,second compound 0.316 µM,0.0954 µM
same,IC50,second compound 1 µM,< 0.0316 µM
same,"viability, T/C",[1],109%
same,"viability, T/C",[2],117%
same,"viability, T/C",[3],79.6%
same,"viability, T/C",[4],93.6%
same,"viability, T/C",[5],110%
same,"viability, T/C",[6],86%
same,"viability, T/C",[7],91.2%
same,"viability, T/C",[8],77%
same,"viability, T/C",[9],76.8%
same,"viability, T/C",[10],91.6%
same,"viability, T/C",[11],82.7%
same,"viability, T/C",[12],86.1%
same,"viability, T/C",[13],81.7%
same,"viability, T/C",[14],88.1%
same,"viability, T/C",[15],61.9%
same,"viability, T/C",[16],57.7%
same,"viability, T/C",[17],76.4%
same,"viability, T/C",[18],63.8%
same,"viability, T/C",[19],78.6%
same,"viability, T/C",[20],54.4%
same,"viability, T/C",[21],59.4%
same,"viability, T/C",[22],67.5%
same,"viability, T/C",[23],70.5%
same,"viability, T/C",[24],59.5%
same,"viability, T/C",[25],64.2%
same,"viability, T/C",[26],44.9%
same,"viability, T/C",[27],48.2%
same,"viability, T/C",[28],46.1%
same,"viability, T/C",[29],57.4%
same,"viability, T/C",[30],50.3%
same,"viability, T/C",[31],36.6%
same,"viability, T/C",[32],42.4%
same,"viability, T/C",[33],26.6%
same,"viability, T/C",[34],47.1%
same,"viability, T/C",[35],34.4%
same,"viability, T/C",[36],32.6%
CC1(C)CCC(Nc2ncc(C(F)(F)F)c(-c3c[nH]c4c(P(C)(C)=O)c(C#N)ccc34)n2)CN1 (stereo not drawn) + COc1c(OCCCN2CCOCC2)ccc2c3n(c(=NC(=O)c4cnc(N)nc4)nc12)CCN3,IC50,second compound 0.00316 µM,> 10 µM
same,IC50,second compound 0.01 µM,9.47 µM
same,IC50,second compound 0.0316 µM,3.06 µM
same,IC50,second compound 0.1 µM,0.196 µM
same,IC50,second compound 0.316 µM,< 0.0316 µM
same,IC50,second compound 1 µM,< 0.0316 µM
same,"viability, T/C",[1],84.5%
same,"viability, T/C",[2],81.8%
same,"viability, T/C",[3],80.2%
same,"viability, T/C",[4],80%
same,"viability, T/C",[5],66.2%
same,"viability, T/C",[6],59.6%
same,"viability, T/C",[7],79.7%
same,"viability, T/C",[8],77.4%
same,"viability, T/C",[9],75.2%
same,"viability, T/C",[10],75.5%
same,"viability, T/C",[11],61.9%
same,"viability, T/C",[12],49.4%
same,"viability, T/C",[13],69.9%
same,"viability, T/C",[14],84%
same,"viability, T/C",[15],73.8%
same,"viability, T/C",[16],66.5%
same,"viability, T/C",[17],49.4%
same,"viability, T/C",[18],45.9%
same,"viability, T/C",[19],72.3%
same,"viability, T/C",[20],47.6%
same,"viability, T/C",[21],54.1%
same,"viability, T/C",[22],45.5%
same,"viability, T/C",[23],43.7%
same,"viability, T/C",[24],36.5%
same,"viability, T/C",[25],49.4%
same,"viability, T/C",[26],45%
same,"viability, T/C",[27],37.3%
same,"viability, T/C",[28],38.4%
same,"viability, T/C",[29],36.6%
same,"viability, T/C",[30],22.3%
same,"viability, T/C",[31],32%
same,"viability, T/C",[32],27.4%
same,"viability, T/C",[33],34%
same,"viability, T/C",[34],30.7%
same,"viability, T/C",[35],27.1%
same,"viability, T/C",[36],20.9%
